# Entries after “also recorded” stand apart in the source; their conditions may differ. Where two headings read alike, the source gives them in different places.
# Experiments:
# Aβ(10-43) [1] = biological target: T1, Aβ(10-43) (Homo sapiens, UniProt P05067); test: Inhibition of [^14 C]Chrysamine G binding to Aβ(10-43); details: for potency/affinity relative to another compound: Congo red or the series
# PC-12 cells = test: Protection from Aβ(25-35)-induced toxicity in PC-12 cells (MTT reduction); details: for protection against Aβ(25-35)-induced toxicity: 1 μM Aβ(25-35) (FIG. 14)
# [2] = Octanol/water partitioning; details: phosphate buffered saline, pH 7.4
# [3] = cited from earlier work
# [4] = mouse; Tubis et al.; cited from earlier work
# Aβ [5] = details: cited from earlier work
# pancreatic islet cells = details: cited from earlier work
# Aβ [6] = details: Lorenzo and Yankner; cited from earlier work
# AD brain [7] = test: Histologic staining of human AD brain sections; details: fluorescence microscopy
# Protocol: 26: 241-242 (1973) with 1 mM 1,4-bis(3-carboxy-4-hydroxyphenylethenyl)-benzene substituted for Congo red, but the procedure was otherwise identical. Stained slides were examined using fluorescence microscopy.
# (§1) The staining method was that of Stokes and Trickey, J. Clin. Pathol. 26: 241-242 (1973) with 1,4-bis(3-carboxy-4-hydroxyphenylethenyl)-benzene substituted for Congo red.
# [8] = system: transgenic mouse brain [Tg(HuAPP695.SWE)2576]; test: Histologic staining of transgenic mouse brain sections; details: fluorescence microscopy
# Description: as §1
# AD brain [9] = test: Scatchard analysis of [^14 C]CG binding to AD brain; set-up: species or system human
# control brain [10] = test: Scatchard analysis of [^14 C]CG binding to control brain; set-up: species or system human
# AD brain [11] = test: Total [^14 C]Chrysamine G binding in AD brain homogenates
# Aβ(10-43) [12] = biological target: T1, Aβ(10-43)
# [13] = Tissue levels and metabolism of [^14 C]Chrysamine G in mice
# control brain [14] = test: Total [^14 C]Chrysamine G binding in control brain homogenates
# Aβ(10-43) [15] = biological target: T1, Aβ(10-43); test: Scatchard analysis of Chrysamine G binding to synthetic Aβ(10-43)
# T1 sequence (P05067 681-714): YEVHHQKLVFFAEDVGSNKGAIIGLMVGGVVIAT
smiles,measurement,setting,value
"O=C(O)c1cc(N=Nc2ccc(-c3ccc(N=Nc4ccc(O)c(C(=O)O)c4)cc3S(=O)(=O)O)c(S(=O)(=O)O)c2)ccc1O [2,2'-(SO3)2 CG]",binding activity,Aβ(10-43) [1],inactivity
O=C(O)c1cc(N=Nc2ccc(-c3ccc(N=Nc4ccc(O)c(C(=O)O)c4)c(I)c3)cc2)ccc1O [3-ICG],potency/affinity relative to another compound,Aβ(10-43) [1]; relative to Chrysamine G,slightly more potent than Chrysamine G
O=C(O)c1cc(N=Nc2ccccc2)ccc1O [aniline derivative],Ki,Aβ(10-43) [1],73000 nM
same,binding activity,Aβ(10-43) [1],decrease in affinity
same,energy of binding (from Ki),Aβ(10-43) [1]; Ki of 73 μM,5.5 kcal/mol
same,expected energy of binding (one-half of Chrysamine G),Aβ(10-43) [1]; predicted value,about 19 KJ/mole
O=C(O)c1cc(F)cc(N=Nc2ccc(-c3ccc(N=Nc4cc(F)cc(C(=O)O)c4O)cc3)cc2)c1O [(5-FSA)CG],potency/affinity relative to another compound,Aβ(10-43) [1]; relative to Chrysamine G,one-third as potent as Chrysamine G itself
"O=C(O)c1cc(N=Nc2ccc(-c3ccc(N=Nc4ccc(O)c(C(=O)O)c4)c(Cl)c3)cc2Cl)ccc1O [3,3'-Cl2 CG]",potency/affinity relative to another compound,Aβ(10-43) [1]; relative to Chrysamine G,about half that of Chrysamine G
O=C(O)c1c(O)ccc(N=Nc2ccc(-c3ccc(N=Nc4ccc(O)c(C(=O)O)c4O)cc3)cc2)c1O [(6-OHSA)CG],Ki,Aβ(10-43) [1],94 ± 20 nM
same,potency/affinity relative to another compound,Aβ(10-43) [1]; relative to Chrysamine G,highest affinity compound in this series
Oc1ccc(N=Nc2ccc(-c3ccc(N=Nc4ccc(O)cc4)cc3)cc2)cc1 [phenol derivative],binding activity,Aβ(10-43) [1],completely destroyed binding affinity; also recorded: does not bind to synthetic Aβ
same,protection against Aβ(25-35)-induced toxicity,PC-12 cells,"no protective effects, and perhaps enhanced the toxicity of Aβ"
O=C(O)c1ccccc1O [salicylic acid],binding activity,Aβ(10-43) [1],total lack of binding activity; also recorded: inactivity
"O=C(O)c1cc(N=Nc2ccc(-c3ccc(N=Nc4ccc(O)c(C(=O)O)c4)c(C(=O)O)c3)cc2C(=O)O)ccc1O [3,3'-(COOH)2 CG]",loss of activity from Chrysamine G,Aβ(10-43) [1]; relative to Chrysamine G,7 fold
"O=C(O)c1cc(N=Nc2ccc(-c3ccc(N=Nc4ccc(O)c(C(=O)O)c4)c(I)c3)cc2I)ccc1O [3,3'-I2 CG]",logD,[2],2.05
same,potency/affinity relative to another compound,Aβ(10-43) [1]; relative to Chrysamine G,about half that of Chrysamine G
Nc1c(/N=N/c2ccc(-c3ccc(/N=N/c4cc(S(=O)(=O)O)c5ccccc5c4N)cc3)cc2)cc(S(=O)(=O)O)c2ccccc12 [Congo red],blood-brain barrier crossing,"[3]; guinea pig, in vivo",does not cross the blood-brain barrier well
same,brain/kidney ratio,[3]; guinea pigs,approximately 0.07
same,LD50,[4],190 mg/kg
same,concentration for complete protection against Aβ-induced toxicity,Aβ [5],≤ 20 µM
same,concentration for protection against Aβ-induced toxicity,Aβ [5],over 2 μM
same,effect on Aβ-induced neurotoxicity,Aβ [5]; in vitro,inhibits fibrillar Aβ neurotoxicity; also recorded: inhibits Aβ-induced neurotoxicity and cell degeneration in vitro
same,effect on amylin toxicity to pancreatic islet cells,pancreatic islet cells,inhibit pancreatic islet cell toxicity; also recorded: protect pancreatic islet cells from the toxicity caused by amylin
same,effect on aggregation of Aβ,Aβ [6],does inhibit aggregation of Aβ
same,logD,[2],-0.177
same,Ki,"Aβ(10-43) [1]; read-out: Ki for inhibition of [^14 C]Chrysamine G binding to Aβ(10-43), [^14 C]Chrysamine G 0.100-0.125 μM",2800 nM
"O=C(O)c1cc(C=Cc2ccc(C=Cc3ccc(O)c(C(=O)O)c3)cc2)ccc1O [1,4-bis(3-carboxy-4-hydroxyphenylethenyl)-benzene]",staining of human AD brain,AD brain [7],"much more intense than that observed with Chrysamine G, Congo red, or Thioflavin S; also recorded: Visible are a large number of neuritic plaques, a neurofibrillary tangle and frequent neuropil threads"
same,staining of transgenic mouse brain,[8],intensely stained plaque
"O=C(O)c1cc(N=Nc2ccc(-c3ccc(N=Nc4ccc(O)c(C(=O)O)c4)cc3)cc2)ccc1O [Chrysamine G, 4,4'-bis(3-carboxy-4-hydroxyphenylazo)-biphenyl]","Bmax, AD brain (Table 1)",AD brain [9]; n = 5,0.784 ± .061 pmol/μg prot
same,Kd,"AD brain [9]; n = 5, read-out: KD, AD brain (Table 1)",390 ± 48 nM
same,Bmax in AD brain higher than control,"AD brain [9]; p=0.09, not significant",36%
same,KD in AD brain lower than control,"AD brain [9]; p=0.29, not significant",16%
same,Bmax (typical AD brain sample),AD brain [9]; sample with 48 NP/×200 magnification,790 fmol/μg protein
same,Kd,"AD brain [9]; sample with 48 NP/×200 magnification, read-out: KD (typical AD brain sample)",350 nM
same,"Bmax, control brain (Table 1)",control brain [10]; n = 6,0.576 ± .092 pmol/μg prot
same,Kd,"control brain [10]; n = 6, read-out: KD, control brain (Table 1)",470 ± 49 nM
same,Bmax (typical control sample),control brain [10]; single typical control,614 fmol/μg protein
same,Kd,"control brain [10]; single typical control, read-out: KD (typical control sample)",480 nM
same,logD,[2],1.78
same,saturable (specific) binding as share of total binding in AD brain,AD brain [11]; 20 μM unlabelled CG defines non-saturable,60-80%
same,correlation (r) of [^14 C]CG binding with NPs,"AD brain [11]; AD brains alone, p=0.007",0.59
same,correlation (r) of [^14 C]CG binding with NFTs,"AD brain [11]; AD brains alone, p=0.026",0.50
same,"total binding, Head of Caudate","AD brain [11]; AD, n = 7, p = 0.14",123 ± 22 fmol/μg protein
same,"total binding, Frontal Pole","AD brain [11]; AD, n = 10, p < 0.006",124 ± 16 fmol/μg protein
same,"total binding, Superior/Middle Frontal","AD brain [11]; AD, n = 11, p < 0.005",130 ± 21 fmol/μg protein
same,"total binding, Superior Temporal","AD brain [11]; AD, n = 11, p < 0.02",121 ± 14 fmol/μg protein
same,"total binding, Inferior Parietal","AD brain [11]; AD, n = 11, p < 0.03",137 fmol/μg protein
same,"total binding, Cerebellum","AD brain [11]; AD, n = 11, p = 0.91",73 ± 9 fmol/μg protein
same,correlation (r) of CG binding with NP counts,"AD brain [11]; brains with cerebrovascular amyloid, p=0.15",0.49
same,correlation (r) of CG binding with NP counts,"AD brain [11]; brains without amyloid angiopathy, p=0.01",0.79
same,correlation (r) of [^14 C]CG binding with NFTs,"AD brain [11]; controls included, p=0.001",0.60
same,correlation (r) of [^14 C]CG binding with NPs,"AD brain [11]; controls included, p=0.001",0.69
same,overlap of binding between control and AD samples,AD brain [11]; superior/middle frontal cortex,no overlap between control and any of the AD samples
same,dissociation t1/2,Aβ(10-43) [12],55 ± 9.4 s
same,metabolism,"[13]; 60 min after i.v. injection, brain and liver",no significant metabolism; also recorded: essentially all of the radioactivity found in the brain and liver proved to be unchanged Chrysamine G
same,entry into brain,[13]; normal mouse brain,"does get into normal mouse brain, and the brain/blood ratio is high"
same,"total binding, Head of Caudate",control brain [14]; n = 4,73 ± 11 fmol/μg protein
same,"total binding, Frontal Pole",control brain [14]; n = 6,58 ± 8 fmol/μg protein
same,"total binding, Cerebellum",control brain [14]; n = 8,75 ± 13 fmol/μg protein
same,"total binding, Inferior Parietal",control brain [14]; n = 8,76 ± 13 fmol/μg protein
same,"total binding, Superior Temporal",control brain [14]; n = 8,66 ± 17 fmol/μg protein
same,"total binding, Superior/Middle Frontal",control brain [14]; n = 8,54 ± 10 fmol/μg protein
same,energy of binding (from KD),Aβ(10-43) [15]; KD 0.26 μM,roughly 38 KJ/mole
same,"Bmax, lower affinity component",Aβ(10-43) [15]; less well defined,18.7 nmoles Chrysamine G/mg Aβ(10-43)
same,Kd,"Aβ(10-43) [15]; read-out: KD, higher affinity component (Scatchard), Aβ(10-43), two-site model",260 nM
same,Kd,"Aβ(10-43) [15]; read-out: KD, lower affinity component (Scatchard), less well defined",4010 nM
same,"Bmax, higher affinity component",Aβ(10-43) [15]; two-site model,3.18 nmoles Chrysamine G/mg Aβ(10-43)
same,protection against Aβ(25-35)-induced toxicity,PC-12 cells,protective effects at 0.1 and 1 μM
same,protective effect dependence,PC-12 cells; 0.01 to 10 μM Aβ(25-35) and 0.03 to 20 μM CG,protective effect which is dependent on both the concentration of Aβ(25-35) (FIG. 12) as well as the concentration of Chrysamine G
same,minimal effective concentration,"PC-12 cells; Rattus norvegicus, PC-12, 24 h, read-out: concentration at which protective effect is evident",0.2 µM
same,MTT reduction in the absence of Aβ(25-35) vs control,PC-12 cells; any of the Chrysamine G concentrations,no significant difference
"O=C(O)c1cc(N=Nc2ccc(-c3ccc(N=Nc4ccc(O)c(C(=O)O)c4)c(Br)c3)cc2Br)ccc1O [3,3'-Br2 CG]",potency/affinity relative to another compound,Aβ(10-43) [1]; relative to Chrysamine G,about half that of Chrysamine G

# From US6114175A, “Compound for the antemortem diagnosis of Alzheimer's Disease and in vivo imaging and prevention of amyloid deposition” (priority 1998, dated 2000)
